Reference: patent publication US8198284B2, “Treatment of neurodegenerative disorders with thiourea compounds” (National Health Research Institutes, priority 2008, dated 2012)

Assays:
Type in all cases: cell-based
Microglia = experiment: Enhancement of microglial Aβ clearance and phagocytosis in vitro; conditions: n=6, p<0.001
Method: Compounds were evaluated for their efficacy in enhancing microglial phagocytosis of Aβ (or Aβ clearance). […] Lipopolysaccharide (LPS) at 10 ng/mL was added as a positive control, which is known to increase Aβ uptake. The culture medium was subjected to Western blotting for evaluating residual Aβ left in the medium. The mean values of fluorescent intensity measured by flow cytometer were compared between cells pretreated with the test compound and the ones in non-treated controls.

iNOS = experiment: Anti-inflammatory activity: LPS-induced iNOS expression (Western blotting)
Method: (§1) Compounds were evaluated for their efficacy in suppressing microglial immune activation by measuring their potency against LPS-induced expression of iNOS and COX-2 and IL-6 secretion. Microglia and Raw 264.7 cells (a microglia-like cell line) were pretreated with a test compound at various doses for 1 hr followed by 24 hr treatment of LPS (10 ng/ml). Cell lysates were subjected to Western blotting for iNOS and COX-2 evaluation. IL-6 secretion was measured from resulting culture medium by ELISA.

COX-2 = experiment: Anti-inflammatory activity: LPS-induced COX-2 expression (Western blotting)
Method: as §1

IL-6 = experiment: Anti-inflammatory activity: LPS-induced IL-6 secretion (ELISA)
Method: as §1

[1] = tested on: Hippocampal organotypic cultures; experiment: Neuro-protection against LPS toxicity in hippocampal organotypic cultures; conditions: pre-treatment, then LPS 10 ng/mL for 24 hr; Western blotting
Method: Compounds were evaluated for their efficacy in suppressing microglia-mediated neurotoxicity. Hippocampal organotypic cultures were established to serve as an ex vivo model for evaluation of hippocampal functions. Pre-treatment of the cultures with a test compound was followed by addition of LPS (10 ng/mL) for 24 hr. Hippocampal tissues were harvested and subjected to Western blotting for measuring synaptophysin and post synaptic density protein (PSD)95 levels, the indications for neuronal synatic functions.

[2] = dose dependent, β-actin unchanged

With `NC(=S)Nc1cccc(OCCCCCNC(=S)Nc2cccc3ccccc23)c1` [Compound 1, 1-naphthalen-1-yl-3-[5-(3-thioureido-phenoxy)-pentyl]-thiourea] the “increase of Aβ uptake as compared to the controls” value (from here on “increase of Aβ uptake”) (Microglia; compound at 10 μM) was “approximately 29%”, the “increase of Aβ uptake” value (Microglia; compound at 20 μM) was ~44% and the “increase of Aβ uptake” value (Microglia; compound at 50 μM) was ~128%. For the same compound, the IC50 (iNOS; Mus musculus, RAW264.7, 1 hr pretreatment, then LPS 10 ng/ml for 24 hr, microglia and Raw 264.7 cells, read-out: Effective dose to show at least 50% suppression (IC50) for iNOS) was 1 µM, the “LPS-induced iNOS expression” value (iNOS; [2]) was “significant suppression” and the IC50 (COX-2; Mus musculus, RAW264.7, 1 hr pretreatment, then LPS 10 ng/ml for 24 hr, microglia and Raw 264.7 cells, read-out: Effective dose to show at least 50% suppression (IC50) for COX-2) was 50 µM. The “LPS-induced COX-2 expression” value (COX-2; [2]) was “significant suppression”, the IC50 (IL-6; 1 hr pretreatment, then LPS 10 ng/ml for 24 hr, secretion by microglia, read-out: Effective dose to show at least 50% suppression (IC50) for IL-6) was 20 µM and the “LPS-induced IL-6 secretion by microglia” value (IL-6; dose dependent) was “inhibited”. The “LPS-induced reduction of PSD95 level” value [1] was “prevented LPS-induced reduction” and the “LPS-induced reduction of synaptophysin level” value [1] was “prevented LPS-induced reduction”.
